Measured values as given in PubChem BioAssay (NCI).
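Following 48 hours of exposure in 96-well plates, responses at five concentrations were used to interpolate endpoints linearly. TGI: total growth inhibition.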

Tests used:
Experiment in all cases: inhibition of tumour cell growth, NCI panel, 48 h
SK-MEL-2 melanoma = tested on: SK-MEL-2 melanoma
PC-3 prostate = tested on: PC-3 prostate
UO-31 renal = tested on: UO-31 renal
HL-60(TB) leukemia = tested on: HL-60(TB) leukemia
NCI/ADR-RES ovarian = tested on: NCI/ADR-RES ovarian

SMILES	TGI (SK-MEL-2 melanoma)	TGI (PC-3 prostate)	TGI (UO-31 renal)	TGI (HL-60(TB) leukemia)	TGI (NCI/ADR-RES ovarian)
CCOC(=O)c1cc2cc(C)cc(C(=O)c3ccc([N+](=O)[O-])cc3)c2[nH]1	> 100 µM	> 100 µM	> 100 µM	> 100 µM	–
Cc1nnc2n1N=C(c1cc(F)c(Cl)cc1Cl)/C(=C/c1ccc3c(c1)OCO3)S2	> 100 µM	> 100 µM	> 100 µM	> 100 µM	> 100 µM
O=c1[nH]c2cc([N+](=O)[O-])ccc2nc1/C=C(\O)c1ccc(Cl)cc1	36.4 µM	32.5 µM	86.2 µM	44.1 µM	28.4 µM
CN(C)c1nc(=NCc2cccnc2)ss1	–	> 10 µM	–	> 10 µM	–
c1cc(NC2=NCCO2)c2c(c1)OCO2	> 100 µM	> 100 µM	> 100 µM	> 100 µM	> 100 µM
O=C(O)C1=NN(c2ccc(S(=O)(=O)O)cc2)C2(C1)SCC(=O)N2c1nc2ccccc2s1 (stereo not drawn)	> 100 µM	> 100 µM	> 100 µM	> 100 µM	> 100 µM
COc1ccc(C)cc1Nc1nnc(-c2ccc(N)cc2)s1	> 100 µM	> 100 µM	> 100 µM	> 100 µM	> 100 µM
Cc1ccc(/C=N/NS(=O)(=O)c2ccc(/C=C3\NC(=O)NC3=O)cc2)cc1	> 100 µM	> 100 µM	> 100 µM	> 100 µM	> 100 µM
Fc1ccc2c3c([nH]c2c1)CCNC3	–	–	99.7 µM	> 100 µM	> 100 µM
CC(C)NC(=O)OCc1c(COC(=O)NC(C)C)c(-c2ccc[n+](COC(=O)C(C)(C)C)c2)n2c1CCC2	> 100 µM	> 100 µM	> 100 µM	> 94.9 µM	> 100 µM
CC(C)N1[C@@H]2CCCC[C@H]2N(C(C)C)P1(=O)C(=O)/C=C/c1ccccc1	8.17 µM	15.2 µM	3.13 µM	4.84 µM	4.81 µM
Cc1cn(C2CC(NC(=NCC3OC(n4cnc5c(N)ncnc54)CC3O)NC#N)C(CO)O2)c(=O)[nH]c1=O (stereo not drawn)	> 100 µM	> 100 µM	> 100 µM	> 100 µM	> 100 µM
COC(=O)c1ccc(NCC2=CC(=O)C=CC2=O)cc1	37.4 µM	37 µM	19.5 µM	5.5 µM	35.5 µM
CCOP(=O)(OCC)C(F)(F)Cc1cnc(C)c2c1COC(C)(C)O2	> 10 µM	> 10 µM	> 10 µM	> 10 µM	> 10 µM
CC1=C[C@@H]2[C@@H](CC(CO)=C[C@H]3[C@@H]4C(C)(C)[C@]4(OCC(C)C)[C@H](OCC(C)C)[C@@H](C)[C@]23O)C1=O	> 6.43 µM	> 4.51 µM	> 6.8 µM	> 5.52 µM	8.31 µM
O=c1c2cc(S(=O)(=O)Nc3c(Cl)cccc3Cl)ccc2ncn1NS(=O)(=O)c1ccc2ccccc2c1	> 62.5 µM	> 62.5 µM	> 62.5 µM	> 62.5 µM	> 62.5 µM
O=C(O)c1ccc(NNC(=O)c2cccc3c(=O)c4ccccc4[nH]c23)cc1	> 100 µM	> 100 µM	> 100 µM	> 100 µM	> 100 µM

SMILES	TGI (SK-MEL-2 melanoma)	TGI (PC-3 prostate)	TGI (UO-31 renal)	TGI (HL-60(TB) leukemia)	TGI (NCI/ADR-RES ovarian)
O=C1COCCN1C(=O)c1ccccc1Cl	–	> 100 µM	> 100 µM	> 100 µM	> 100 µM
O=c1cc(-c2cccc(OCc3ccccc3)c2)[nH]c2cc3c(cc12)OCO3	5.88 µM	> 100 µM	16 µM	0.412 µM	0.462 µM
O=S(=O)(O)C(Cc1nc2ccccc2[nH]1)S(=O)(=O)OCCC1S(=O)(=O)OCCOS1(=O)=O (stereo not drawn)	> 100 µM	> 100 µM	> 100 µM	> 100 µM	> 100 µM
CCn1c2ccccc2c2cc(NC(=O)c3c(NCCNCCO)nc(=O)[nH]c3C)ccc21	–	> 100 µM	> 100 µM	> 100 µM	> 100 µM
CCOC(=O)c1cc(C#N)[nH]c1-c1ccsc1	> 100 µM	70.4 µM	–	41.5 µM	94.9 µM
COc1cc2c(cc1OC)C(=O)/C(=C/c1ccc([N+](=O)[O-])cc1)CC2	> 10 µM	> 10 µM	–	> 10 µM	> 10 µM
c1cc(C[S+]2CCCC2)sc1C[S+]1CCCC1	–	> 100 µM	> 100 µM	> 100 µM	> 100 µM
CN1CCc2cc(N)cc3c2C1Cc1ccc2c(c1-3)OCO2 (stereo not drawn)	> 100 µM	> 100 µM	84.6 µM	> 75.7 µM	> 83 µM
O=C1OC(CS(=O)(=O)c2ccccc2)CC1O (stereo not drawn)	> 100 µM	> 100 µM	> 100 µM	–	> 100 µM
Cc1ccc(S(=O)(=O)Nn2c(O)c(C#N)c(-c3ccc(N(C)C)cc3)c(C#N)c2=O)cc1	> 50 µM	> 50 µM	–	> 50 µM	> 50 µM
Cc1cc(O)c2c(c1)CC(O)C1=C2C(=O)c2c(O)ccc(OC3CC(O)C(OC4CC(OC5CCC(O)C(C)O5)C(O)C(C)O4)C(C)O3)c2C1=O (stereo not drawn)	3.83 µM	3.96 µM	3.23 µM	1.68 µM	9.61 µM
O=C(Nc1ccc(Cl)cc1)NS(=O)(=O)c1c(-c2ccccc2)oc2ccccc2c1=O	> 100 µM	> 100 µM	> 100 µM	> 100 µM	> 100 µM
N#CC(c1ccccc1)N(CCOCCOCCN(C(=O)c1cccc2ccccc12)C(C#N)c1ccccc1)C(=O)c1cccc2ccccc12 (stereo not drawn)	> 100 µM	> 100 µM	> 100 µM	> 100 µM	> 100 µM
C#CCCOC(=O)c1ccccc1OC(C)=O	> 100 µM	> 100 µM	> 100 µM	–	> 100 µM
CC1=C2CN(C(=O)OCC(C)C)CCC2C2=C(C(=O)c3ccccc3C2=O)C1C (stereo not drawn)	–	> 10 µM	–	> 10 µM	–
C=C(CN)CO[Si](C)(C)C(C)(C)C	> 100 µM	> 100 µM	> 100 µM	> 100 µM	> 100 µM
